Series [1] has as its system PBMCs from human heathy donors. Put plainly: FluoroSpot T cell responses of PBMCs to AAV2 and AAV9 capsid peptide pools. It is filed as cell-based. The conditions noted are these: 100 nM dasatinib, 48 hrs, two donors. The protocol:
FIGS. 12A-12B: Dasatinib treatment reduces T cell responses to AAV2 and AAV9 in vitro. PBMCs from human heathy donors were stimulated with peptide pools covering the AAV2 and AAV9 capsid sequences in the absence (black bars) or presence of 100 nM dasatinib (grey bars). After 48 hrs, IFN-γ- and TNF-α secreting cells were measured by Fluorospot. Mean Spot-Forming Cellsmedian+/−SD are shown for 1E6 PBMCs. Dotted line: Positivity threshold.
An important question was its potential effect on the cellular adaptive immune response. T cell responses to rAAV have been reported to induce the clearance of AAV-transduced cells and thereby decrease the duration of transgene expression. It is also known that T cell responses to AAV can mediate liver toxicities in the clinic. T cell responses to AAV can be measured in healthy human blood donors who have previously been infected with wild-type AAV. FluoroSpot assays reveal the proportions of IFN-y-and TNF-a-producing PBMCs induced upon incubation with pools of AAV capsid peptides. We used this assay to assess the response of PBMCs from two healthy blood donors to three different peptide pools covering the capsid sequences of AAV2 and AAV9 (FIGS. 12A-12B). […] Donor 2 had positive IFN-γ and/or TNF-α responses to AAV9 pools 2 and 3. All these responses were inhibited in the presence of 100 nM dasatinib.

The test system of series [2] is human whole blood. The experiment in a line: AAV8-dependent cytokine release in human whole blood from four healthy donors with IVIG. It is filed as cell-based. On the procedure: FIGS. 6A-6C: Dasatinib inhibits AA V8-dependent cytokine release in human whole blood. Fresh whole blood from 4 healthy donors was incubated with either PBS or AAV8-hSEAP (5e11 vg/mL) with IVIG (PRIVIGEN, 1/100) for 24 hrs. Dasatinib was added at the concentration of 50 nM 1 hr before addition of AAV8. In some of the culture wells, a second dose of dasatinib was added 9 hrs after AAV8 treatment (dasa 50 nM 2x). After 24 hrs, the plasma was collected and cytokines measured using Quanterix kits. Depicted are the cytokine fold increases over PBS for IFN-γ and TNF-α (FIG. 6A), IL-6 and IL-1x (FIG. 6B), and IL-2 and IL-1β (FIG. 6C), with the percentages of inhibition in the presence of dasatinib (means +/−SEM).
To study in more detail the effects of dasatinib on AAV-dependent cytokine release, another whole blood assay was performed. Whole blood from four healthy donors was incubated with AAV8-hSEAP (5e11 vg/ml) for 24 hrs. Intravenous Immunoglobulin (IVIG, Privigen) which contains anti-AAV antibodies was added to the blood samples. Dasatinib was added at 50 nM 1 hr before the AAV treatment, PBS was used as a negative control. As the half-life of dasatinib is very short (Lindauer M et al, Recent Results Cancer Res. 2010;184:83-102), a second dasatinib addition was performed 9 hrs after the AAV treatment. After 24 hrs, plasma supernatants were collected and cytokines measured using Quanterix kits. […] Inhibition of AAV-mediated cytokine release likely contributes to the effect of dasatinib on antibody formation.

The subject of series [3] is murine splenocytes. Put plainly: AAV8-dependent cytokine and chemokine release by murine splenocytes. It is filed as cell-based, C57BL/6 mouse. The conditions noted are these: dasatinib 100 nM, 50 nM or 12.5 nM; 24 hrs, AAV8-hSeap MOI 1E5. On the procedure: Splenocytes were isolated from a C57/B16 mouse and incubated for 24 hrs with AAV8-hSeap at MOI 1E5 in the presence or absence of dasatinib (100 nM, 50 nM or 12.5 nM). Cytokines and chemokines were measured in the culture supernatants. LPS (positive) and PBS (negative) controls are shown on the graphs. Means+/−SD (triplicates). Dashed line: Lower limit of quantification.
To investigate the mechanism of dasatinib-mediated inhibition of the humoral response to AAV8 observed in mice (Examples 1 and 5), we looked whether the rapid production of cytokines and chemokines by immune cells was affected by the dasatinib treatment. Total splenocytes from a C57BL/6 mouse were cultured for 24 hrs in the presence or absence of dasatinib at different concentrations. Cytokines and chemokines secreted in the culture supernatants were analyzed using ProcartaPlex Immunoassays (Luminex).

Series [4] relates to human whole blood. The experiment in a line: AAV-mediated cytokine release in human whole blood (one AAV8 pre-immune donor). It is filed as cell-based. The conditions noted are these: dasatinib 12.5 or 50 nM, 24 hrs with 5E11 vg/mL AAV8-hSEAP. On the procedure: FIGS. 5A-5B. Effect of dasatinib on AAV-mediated cytokine release in human whole blood. The production of low levels of IFN-γ and IL-6 in whole blood are stimulated after 24 hrs incubation with 5E11 vg/mL of AAV8-hSEAP. […] Depicted are cytokine concentrations (pg/mL+/−SD, left), fold increases over the level measured in the PBS control (middle) and percentages of inhibition of AAV-dependent cytokine release (right, calculated as 100 × (concentration with AAV8 alone-concentration with AAV8 and dasatinib)/(concentration with AAV8 alone)), respectively. (FIG. 5A) Interferon-γ production. (FIG. 5B) IL-6 production.
To assess whether dasatinib could affect AAV-mediated cytokine release, an assay was performed in whole blood from a healthy donor. This donor was seropositive for anti-AAV8 antibodies (IgG titer: 1/21870; IgM titer: 1/810). Whole blood from an AAV8 pre-immune donor was incubated in triplicates with 5E11 vg/mL (GC/mL) of an AAV8-hSEAP vector, in the presence or absence of 12.5 nM or 50 nM dasatinib. Lipopolysaccharide (LPS) and Lemtrada (alemtuzumab, anti-CD52, Genzyme), a monoclonal antibody known to induce strong cytokine release in blood, were used as positive controls at a concentration of 1 μg/ml and 0.1 μg/ml respectively. […] After 24 hrs, plasma supernatants were collected and cytokines measured using Quanterix kits with the SP-X imaging and analysis system (Simoa).

For series [5] the following is noted: Lindauer M et al, 2010; cited from earlier work.
Setting [6] is: dasatinib 50 nM, 24 hrs, AAV8-hSEAP 5e11 vg/ml with IVIG.

Data on one compound can be found in US20260000670A1 (priority 2022, published 2026).

As to `Cc1nc(Nc2ncc(C(=O)Nc3c(C)cccc3Cl)s2)cc(N2CCN(CCO)CC2)n1` [dasatinib, N-(2-chloro-6-methylphenyl)-2-[[6-[4-(2-hydroxyethyl)-1-piperazinyl]-2-methyl-4-pyrimidinyl]amino]-5-thiazole carboxamide monohydrate], in series [1], the “IFN-γ responses (secreting cells) to AAV9 peptide pools” value was “inhibited”; the “TNF-α responses (secreting cells) to AAV2 and AAV9 peptide pools” value is on record as “inhibited”. Further, the “inhibition of cytokine production with second dasatinib addition versus single addition” value in series [2] (dasatinib 50 nM added both 1 hr before and 9 hrs after AAV treatment) is “more pronounced”. Further, in series [2] (setting [6]), the “production of IFN-Y” value is “inhibited”, the “production of IL-1β” value is “inhibited”, the “production of IL-2” value was “inhibited” and the “production of IL-6” value is recorded as “inhibited”. In series [2] (setting [6]), the “production of IL-la” value is given as “inhibited” and the “production of TNF-α” value is listed as “inhibited”. In addition, in series [3], the “IL-6 in culture supernatant” value is “dose-dependent decreases”, the “IP-10/CXCL10 in culture supernatant” value was “dose-dependent decreases”, the “MCP-1 in culture supernatant” value was “dose-dependent decreases” and the “MCP-3 in culture supernatant” value is on record as “dose-dependent decreases”. Moreover, in series [3], the “MIP-1α in culture supernatant” value is given as “dose-dependent decreases”, the “MIP-1β in culture supernatant” value is on record as “dose-dependent decreases”, the “MIP-2α in culture supernatant” value is listed as “dose-dependent decreases” and the “TNF-α in culture supernatant” value is “dose-dependent decreases”. In series [4], the IFN-γ production result was “reduced dose-dependently” and the IL-6 production entry is “reduced dose-dependently”. In series [5], the half-life result is given as “very short”.
